“Also recorded” adds a separate entry of the source. Where two headings read alike, the source gives them in different places.
Experiments:
Colo-205 xenografts = Colo-205 xenografts in nude mice; format: in vivo; conditions: for non-specific toxicities as judged by body weight: 25 mg/kg daily for 21 days i.v., FIG. 7C; for in vivo antitumor efficacy: 25 mg/kg/day i.v. for 21 days, FIGS. 7A and 7B
global DNA methylation = assay: global DNA methylation; format: cell-based
From the text: XB05 (BX11) has activities that slightly differ from other agents in this class of compounds. This is illustrated not only by the NCI 60 data, but also by the effects of XB05 (BX11) and 5-aza on cancer cells and tumor xenografts (FIG. 7). […] XB05 (BX11) and 5-aza may inhibit DNMT activity by different mechanisms.

A549 xenografts = assay: A549 lung cancer xenograft model
From the text: (§1) U.S. Patent Publication No. 2008/0188570 (herein incorporated by reference in its entirety) further discloses more than 50 analogs of XB05 (BX11). […] In some embodiments, the DNMT1 inhibitor is XB05a (BX12).

DNMT1 [1] = target: T1, DNMT1 (Homo sapiens, UniProt P26358); assay: DNMT1 activity in nuclear extracts from treated cells; format: cell-based; design: endogenous in cells; conditions: FIG. 5B
From the text: (§2) The assays use recombinant Human DNMT1 (FIG. 5A) or nuclear extracts prepared from cells treated with XB05 (BX11) or XB05a (BX12) (FIG. 5B).
Target sequence in this assay (P26358 whole entry, species assumed): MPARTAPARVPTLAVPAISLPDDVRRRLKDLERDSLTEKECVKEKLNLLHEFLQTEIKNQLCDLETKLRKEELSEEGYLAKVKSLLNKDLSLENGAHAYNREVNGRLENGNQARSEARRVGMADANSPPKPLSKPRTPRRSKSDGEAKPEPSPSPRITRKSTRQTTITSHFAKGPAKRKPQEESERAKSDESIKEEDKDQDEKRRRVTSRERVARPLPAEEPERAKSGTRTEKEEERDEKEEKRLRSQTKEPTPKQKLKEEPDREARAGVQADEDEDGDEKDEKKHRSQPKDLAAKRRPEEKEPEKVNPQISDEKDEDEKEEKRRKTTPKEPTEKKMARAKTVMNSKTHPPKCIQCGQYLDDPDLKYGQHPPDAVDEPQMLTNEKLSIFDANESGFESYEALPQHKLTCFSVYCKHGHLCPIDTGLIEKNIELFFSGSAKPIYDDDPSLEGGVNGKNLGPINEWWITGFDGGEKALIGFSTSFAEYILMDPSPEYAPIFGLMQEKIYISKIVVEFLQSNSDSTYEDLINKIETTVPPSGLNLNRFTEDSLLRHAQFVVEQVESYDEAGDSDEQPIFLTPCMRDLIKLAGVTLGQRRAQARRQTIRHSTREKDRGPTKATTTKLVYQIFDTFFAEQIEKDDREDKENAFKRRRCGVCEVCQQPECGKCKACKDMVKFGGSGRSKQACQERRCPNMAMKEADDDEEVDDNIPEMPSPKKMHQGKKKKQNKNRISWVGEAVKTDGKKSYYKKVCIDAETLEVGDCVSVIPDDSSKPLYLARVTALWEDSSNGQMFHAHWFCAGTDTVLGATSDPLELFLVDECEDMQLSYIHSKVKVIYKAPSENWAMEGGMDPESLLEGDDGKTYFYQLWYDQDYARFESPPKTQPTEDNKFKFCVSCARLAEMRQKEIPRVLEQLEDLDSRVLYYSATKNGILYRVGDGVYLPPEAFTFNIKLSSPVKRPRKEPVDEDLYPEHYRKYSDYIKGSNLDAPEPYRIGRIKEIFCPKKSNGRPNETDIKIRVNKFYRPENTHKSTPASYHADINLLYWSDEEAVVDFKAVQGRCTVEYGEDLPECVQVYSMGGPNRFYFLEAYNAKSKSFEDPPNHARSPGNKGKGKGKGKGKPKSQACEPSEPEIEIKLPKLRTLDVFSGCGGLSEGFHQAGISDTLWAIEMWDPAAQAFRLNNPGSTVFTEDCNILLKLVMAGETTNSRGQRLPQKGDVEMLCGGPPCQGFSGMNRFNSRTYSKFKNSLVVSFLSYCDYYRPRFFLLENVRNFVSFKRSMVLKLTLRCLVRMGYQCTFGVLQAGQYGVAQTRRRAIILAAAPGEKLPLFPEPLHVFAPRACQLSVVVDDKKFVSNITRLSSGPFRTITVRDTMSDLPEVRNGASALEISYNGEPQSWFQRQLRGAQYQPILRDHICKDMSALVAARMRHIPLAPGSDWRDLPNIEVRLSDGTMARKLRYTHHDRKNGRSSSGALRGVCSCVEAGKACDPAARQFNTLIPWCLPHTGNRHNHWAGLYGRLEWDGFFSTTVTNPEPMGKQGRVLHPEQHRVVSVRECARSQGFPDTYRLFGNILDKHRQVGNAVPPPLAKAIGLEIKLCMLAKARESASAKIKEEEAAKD

HCT116 cells [2] = assay: clonogenic survival and MTT proliferation assays; format: cell-based; conditions: colon cancer, positive control
From the text: (§3) (3a) results from the NCI 60 cell screen showing a good correlation between the levels of expression of SOX9 and cell death induced by XB05 (BX11); (3b) Western blot showing expression of SOX9 in sensitive cell lines; (3c) clonogenic survival assay in cells sensitive or resistant to XB05 (BX11); (3d) MTT proliferation assays in cells sensitive or resistant to XB05 (BX11).
(§4) FIG. 3B are Western blots (WB) confirming expression of Biomarker X (SOX9) protein in the sensitive cell lines. […] Where indicated, HCT116 cells (colon cancer, sensitive to XB05 (BX11)) and LLC cells (murine lung carcinoma, resistant to XB05 (BX11)) are shown as positive and negative controls, respectively. (SOX9 levels were not assayed in LLC cells because they are of mouse origin).

LLC cells = assay: clonogenic survival and MTT proliferation assays; format: cell-based; conditions: murine lung carcinoma, negative control
From the text: as §3, §4

[3] = test system: DU145 and LNCaP prostate cancer cells; assay: RT-PCR mRNA expression of silenced tumor suppressor genes; format: cell-based
[4] = test system: MDA-MB-231 breast cancer cells; assay: soft agar colony formation assay; format: cell-based; conditions: stained 21 days after plating
Protocol: FIG. 4B are data from soft agar colony formation assays for MDA-MB-231 breast cancer cells. The cells were stained with crystal violet 21 days after plating.
FIG. 4C is a graph of the data from the soft agar colony formation assays for MDA-MB-231 breast cancer cells. The data shown are the mean±standard error (n=3).
(§5) BX11 (XB05) has potent antiproliferative and cytotoxic activity on a variety of breast cancer cell types, with some cell types having GI50 values less than or equal to 10 μM. There were several cell lines that seemed particularly sensitive to the cytotoxic effects of BX11 (BX05). […] The MDA-MB-231 cell line is derived from a triple negative breast cancer (TNBC) and MDA-MB-435 was originally described as being derived from a TNBC, although its origin is now uncertain (it is unquestionably derived from the same source as the M14 melanoma cell line and many believe it is a melanoma, although some argue that both cell lines are derived from a breast carcinoma). […] This latter assay is often used to assess activity against the subpopulation of stem-like cancer cells with enhanced tumor-initiating capacity.

DNMT1 [5] = target: T1, DNMT1; assay: in vitro DNMT1 activity assay; format: biochemical
From the text: FIG. 9A is a schematic of an exemplary in vitro DNMT activity assay.
as §2
Target sequence in this assay (P26358 whole entry): as the sequence (P26358 whole entry, species assumed) above

HCT116 xenografts = assay: HCT116 xenografts; conditions: in vivo
[6] = test system: GSTP1 promoter from LNCaP cells; assay: methylation specific PCR of GSTP1 promoter; format: cell-based; conditions: 100 nm XB05 (BX11)
A549 lung cancer cells = assay: sensitivity of A549 cells to XB05; format: cell-based
From the text: The present invention is based on the discovery that SOX9 expression in cancer cells is correlated with sensitivity to cell killing by XB05 (BX11). The COMPARE algorithm (Andrianasolo et al., J. Nat. Prod. 69:576-579, 2006) was used to search for correlations between response to XB05 (BX11) and gene expression using the NCI 60 cell line screen for XB05 (BX11) and the publicly available microarray studies of the NCI 60 panel. […] High levels of SOX9 expression were associated with high sensitivity to XB05 (BX11) across the 60 cell lines, as shown in FIG. 3. […] The experiments have been repeated multiple times and differences are statistically significant (p<0.05).

breast cancer cell lines = assay: NCI60 data, proliferation of breast cancer cell lines; format: cell-based, human; conditions: all breast cancer cell lines, FIG. 4A, read-out: GI50 (cytostatic effects)
Protocol: (§6) FIG. 4A is NCI60 data showing the effect of XB05 (BX11) on proliferation of various breast cancer cell lines. All cells lines are sensitive to XB05 (BX11) cytostatic effects (GI50<100 nM), whereas a few are especially susceptible to cytotoxic effects (e.g., see 1 μM XB05 (BX11) data points).
A variety of different breast cancer cell lines were treated with 1 μM BX11, and the cytotoxic effect of 1 μM BX11 was determined. The cytotoxicity data for each breast cancer cell line was correlated with the SOX9 level present in each cell line prior to treatment.
as §5

[7] = test system: MDA-MB-231 breast cancer cells; assay: tumorsphere formation assay; format: cell-based; conditions: day 12 after plating
Protocol: FIG. 4D are data from tumorsphere formation assays for MDA-MB-231 breast cancer cells on day 12 after plating. The data shown are representative images from three separate experiments.
FIG. 4E is a graph of the data from the tumorsphere formation assays for MDA-MB-231 breast cancer cells on day 12 after plating.
as §5

endothelial cell (HUVEC) = assay: transwell migration and tube formation assay; format: cell-based; conditions: 800 nM XB05 (BX11)
HCT116 cells [8] = assay: induction of senescence; format: cell-based; conditions: 96 h with 100 nM XB05 (BX11)
[9] = test system: MDA-MB-231 breast cancer cells; assay: RT-PCR and Western blotting of methylated (repressed) genes; format: cell-based; conditions: 1 μM BX11 (XB05), 72 hours, control genes GAPDH and β-actin unchanged
Protocol: Experiments described above were performed to test the effect of BX11 (XB05) on DNMT1 activity. The expression of a number of methylated (repressed) genes in MDA-MB-231 breast cancer cells was further determined using both RT-PCR and Western blotting following treatment with vehicle (control), 1 μM BX11 (XB05), or 10 μM 5-azacytidine (positive control).

MDA-MB-231 = assay: NCI60 breast cancer panel, cytotoxic effect; format: cell-based, human; conditions: 1 μM BX11, FIG. 4A
Protocol: as §6, §5

MDA-MB-435 = assay: NCI60 breast cancer panel, cytotoxic effect; format: cell-based, human; conditions: 1 μM BX11, FIG. 4A
Protocol: as §6, §5

HOP92 cells = assay: SOX9 siRNA knockdown, cell number and viability; format: cell-based; conditions: 60 nM siRNA 24 hours, then XB05 48 hours
Protocol: In a second set of experiments, HOP92 cells were transfected for 24 hours with 60 nM siRNA against SOX9, control siRNA, or no RNA (mock). Knockdown of SOX9 was confirmed by Western blots (WB). Cells were then treated with XB05 (BX11) as indicated. After 48 hours, the cell number and viability for each sample was determined using an automated cell counter.

[10] = test system: several cancer cell lines, including prostate cancer; assay: activity against cancer cell lines (Table 2); format: cell-based
aqueous stability = format: physicochemical; conditions: addressed by cremaphor/ethanol/NaCl formulation
From the text: as §1

[11] = anti-proliferative assays; format: cell-based
From the text: as §1

CCCCCC(C#CC(F)(F)Br)OC(C)=O (racemic) [XB05b (BX17)]
non-specific toxicities as judged by body weight (Colo-205 xenografts): no evidence of any severe non-specific toxicities | in vivo antitumor efficacy (Colo-205 xenografts): in vivo antitumor efficacy

Nc1ncn([C@@H]2O[C@H](CO)[C@@H](O)[C@H]2O)c(=O)n1 [5-aza, 5-azacytidine, reference compound]
effect on global DNA methylation (global DNA methylation): causes global DNA methylation | activity relative to XB05 (BX11) (global DNA methylation; 5-aza used at higher concentrations than XB05 (BX11)): less active | maximally tolerated dose (A549 xenografts; mouse, in vivo): 6 mg/kg

CCCCCC(O)C#CC(F)(F)Br (centres unmarked) [XB05 (BX11)]
DNMT1 activity (DNMT1 [1]): inhibitory effects | sensitivity to XB05 (BX11) (HCT116 cells [2]): sensitive | sensitivity to XB05 (BX11) (LLC cells): resistant | reactivation of silenced tumor suppressor genes [3]: reactivates | reactivation of silenced tumor suppressor genes ([3]; listed as XB05): reactivates | colony formation in soft agar [4]: inhibit | DNMT1 activity (DNMT1 [5]; recombinant human DNMT1, FIG. 5A): inhibitory effects | DNMT activity (DNMT1 [5]; summary statement, assay form not specified): Inhibits | tumor necrosis ("hollow" tumors) (HCT116 xenografts): central tumor necrosis | promoter methylation [6]: inhibits | sensitivity to XB05 (BX11) (A549 lung cancer cells): modest sensitivity | GI50 (breast cancer cell lines): < 100 nM | effect on global DNA methylation (global DNA methylation): no obvious effect | effect on global DNA methylation (global DNA methylation; listed as XB05): including no effect on global DNA methylation. | tumorsphere growth [7]: inhibit | endothelial cell function (transwell migration, tube formation) (endothelial cell (HUVEC)): inhibition; also recorded: inhibitory effects | toxicity to HUVECs (endothelial cell (HUVEC)): non-toxic | endothelial cell function (transwell migration, tube formation) (endothelial cell (HUVEC); listed as XB05): Inhibits endothelial cell activity in in vitro assays. | senescence in cancer cells (HCT116 cells [8]): induction of senescence; also recorded: induce cellular senescence | senescence in cancer cells (HCT116 cells [8]; listed as XB05): Induces senescence in cancer cells. | expression of genes commonly silenced by methylation [9]: re-expressed | expression of genes commonly silenced by methylation ([9]; listed as BX11 (XB05)): specific reactivation | tumor growth delay, alone (A549 xenografts; i.v. 25 mg/kg/day x 21, monotherapy): significant tumor growth delay | tumor growth delay, in combination with cisplatin (A549 xenografts; i.v. 25 mg/kg/day x 21 plus cisplatin 4 x 4 mg/kg every 3 days): significant tumor growth delay | cell death (MDA-MB-231): significant cell death | cell death (MDA-MB-435): significant cell death | anti-proliferative effects after knockdown of SOX9 using a specific siRNA (HOP92 cells): completely blocked | potent activity against several cancer cell lines [10]: Discovered by chance to have potent activity (<100 nM) against

CC/C=C\CCC(O)C#CC(F)(F)Br (centres unmarked) [XB05a (BX12)]
activity in DNMT1 inhibition assays compared to XB05 (BX11) (DNMT1 [5]): equivalent or better activity | aqueous stability (aqueous stability): poor | non-specific toxicities as judged by body weight (Colo-205 xenografts): no evidence of any severe non-specific toxicities | in vivo antitumor efficacy (Colo-205 xenografts): in vivo antitumor efficacy | antitumor activity alone compared with 5-aza alone (A549 xenografts; 5-aza at 6 mg/kg): more active | myelotoxicity (A549 xenografts; data not shown): no significant myelotoxicity | toxicity (body weight loss) compared with 5-aza or cisplatin (A549 xenografts; mouse, in vivo): much less toxicity | activity in anti-proliferative assays compared to XB05 (BX11) [11]: equivalent or better activity
